Values joined by “and” are separate entries in the source; they are usually repeats but may differ in a detail not shown here. Identical values can stand only once. Inconclusive results and toxic doses are left out.
System: P388 leukemia ip, CD2F1 mice, survival T/C
Experiment: NCI In Vivo Anticancer Drug Screen. Data for tumor model P388 Leukemia (intraperitoneal) in CD2F1 (CDF1) mice
Conditions: endpoint: median survival time, higher = longer survival
Summary of the method: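 Mice carrying the transplanted tumor received test compound or vehicle. Survival was recorded in each group, and the value is the treated-group measurement divided by that of the vehicle-treated control group.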

[1] = dose: 50.0 mg/kg/injection, schedule: Q01DX009 (ip), vehicle: Klucel (hydroxypropylcellulose) (HPC)
[2] = dose: 100.0 mg/kg/injection, schedule: Q01DX009 (ip), vehicle: Klucel (hydroxypropylcellulose) (HPC)
[3] = dose: 200.0 mg/kg/injection, schedule: Q01DX009 (ip), vehicle: Klucel (hydroxypropylcellulose) (HPC)
[4] = dose: 50.0 mg/kg/injection, schedule: Q01DX001 (ip), vehicle: saline
[5] = dose: 400.0 mg/kg/injection, schedule: Q01DX009 (ip), vehicle: Klucel (hydroxypropylcellulose) (HPC)
[6] = dose: 60.0 mg/kg/injection, schedule: Q01DX005 (ip), vehicle: saline with Tween-80
[7] = dose: 120.0 mg/kg/injection, schedule: Q01DX005 (ip), vehicle: saline with Tween-80
[8] = dose: 240.0 mg/kg/injection, schedule: Q01DX005 (ip), vehicle: saline with Tween-80
[9] = dose: 25.0 mg/kg/injection, schedule: Q01DX005 (ip), vehicle: Klucel (hydroxypropylcellulose) (HPC)
[10] = dose: 50.0 mg/kg/injection, schedule: Q01DX005 (ip), vehicle: Klucel (hydroxypropylcellulose) (HPC)
[11] = dose: 100.0 mg/kg/injection, schedule: Q01DX005 (ip), vehicle: Klucel (hydroxypropylcellulose) (HPC)
[12] = dose: 200.0 mg/kg/injection, schedule: Q01DX005 (ip), vehicle: Klucel (hydroxypropylcellulose) (HPC)

In the case of `O=C(O)[C@@H]1[C@H]2C[C@H]3c4[nH]c5ccccc5c4CCN3C[C@@H]2CC[C@@H]1O`, the T/C (dose: 25.0 mg/kg/injection, schedule: Q01DX009 (ip), vehicle: Klucel (hydroxypropylcellulose) (HPC)) is reported as 87 % of control, the T/C [1] is reported as 88 % of control and the T/C [2] is reported as 100 % of control. The T/C [3] was 101 % of control.

In the case of `O=S(=O)(O)O.[Cu+2].[NH-]CCC[N-]CCCC[N-]CCC[NH-]`, the T/C (dose: 6.25 mg/kg/injection, schedule: Q01DX001 (ip), vehicle: saline) is reported as 108 % of control, the T/C (dose: 12.5 mg/kg/injection, schedule: Q01DX001 (ip), vehicle: saline) is reported as 113 % of control and 92 % of control and the T/C (dose: 25.0 mg/kg/injection, schedule: Q01DX001 (ip), vehicle: saline) is reported as 113 % of control. For the same compound, the T/C [4] was 106 % of control.

`N#CC1CCCCCc2c1[nH]c1ccccc21` (centres undefined) was tested, and the T/C (dose: 25.0 mg/kg/injection, schedule: Q01DX009 (ip), vehicle: saline with Tween-80) was 97 % of control, the T/C (dose: 50.0 mg/kg/injection, schedule: Q01DX009 (ip), vehicle: saline with Tween-80) was 103 % of control and the T/C (dose: 100.0 mg/kg/injection, schedule: Q01DX009 (ip), vehicle: saline with Tween-80) was 103 % of control.

With `O=C(OC1COC(Br)C(OC(=O)c2ccccc2)C1OC(=O)c1ccccc1)c1ccccc1` (centres undefined) the T/C [2] was 100 % of control, the T/C [3] was 100 % of control and the T/C [5] was 90 % of control.

In the case of `FC(F)(F)c1cccc(COCCN2CCN(Cc3cccc(C(F)(F)F)c3)CC2)c1`, the T/C [6] is reported as 103 % of control, the T/C [7] is reported as 95 % of control and the T/C [8] is reported as 112 % of control.

`O=[N+]([O-])c1cnc2n(O)cccc1-2` was tested, and the T/C (dose: 100.0 mg/kg/injection, schedule: Q01DX001 (ip), vehicle: saline with Tween-80) was 90 % of control and the T/C (dose: 200.0 mg/kg/injection, schedule: Q01DX001 (ip), vehicle: saline with Tween-80) was 87 % of control.

For `CCCCCCCCCCC(C)c1ccc(S(=O)(=O)O)cc1` (centres undefined), the T/C [4] was 100 % of control, the T/C (dose: 100.0 mg/kg/injection, schedule: Q01DX001 (ip), vehicle: saline) was 90 % of control and the T/C (dose: 200.0 mg/kg/injection, schedule: Q01DX001 (ip), vehicle: saline) was 95 % of control.

With `Cc1ccc(C2=NN(c3ccccc3)C(c3ccccc3)C2NC2CCCCC2)cc1` (centres undefined) the T/C [9] was 90 % of control, the T/C [10] was 90 % of control and the T/C [11] was 89 % of control.

For `COC(C)C(Br)C(=O)NN=C(c1ccccc1)c1ccccc1` (centres undefined), the T/C (dose: 100.0 mg/kg/injection, schedule: Q04DX003 (ip), vehicle: saline) was 95 % of control, the T/C (dose: 200.0 mg/kg/injection, schedule: Q04DX003 (ip), vehicle: saline) was 93 % of control and the T/C (dose: 400.0 mg/kg/injection, schedule: Q04DX003 (ip), vehicle: saline) was 95 % of control.

`COC(=O)C1C2C=CC(C1C(=O)OC)C1C(C(=O)NN)C(C(=O)NN)C21` (centres undefined) was tested, and the T/C [6] was 98 % of control, the T/C [7] was 97 % of control and the T/C [8] was 96 % of control.

`O=C(NC1C=Nc2ccc(Cl)cc2NC1=O)c1ccccc1Cl` (centres undefined) was tested, and the T/C [6] was 92 % of control, the T/C [7] was 95 % of control and the T/C [8] was 100 % of control.

In the case of `O=C(c1ccccc1)C(CC(C(=O)c1ccccc1)c1ccccc1)c1ccccc1` (centres undefined), the T/C (dose: 50.0 mg/kg/injection, schedule: Q01DX005 (ip), vehicle: saline with Tween-80) is reported as 108 % of control, the T/C (dose: 100.0 mg/kg/injection, schedule: Q01DX005 (ip), vehicle: saline with Tween-80) is reported as 96 % of control and the T/C (dose: 200.0 mg/kg/injection, schedule: Q01DX005 (ip), vehicle: saline with Tween-80) is reported as 99 % of control.

`O=[N+]([O-])c1ccc(N2CCN(Cc3ccccc3)CC2)c2c1no[n+]2[O-]` was tested, and the T/C (dose: 37.5 mg/kg/injection, schedule: Q04DX003 (ip), vehicle: saline) was 100 % of control, the T/C (dose: 37.5 mg/kg/injection, schedule: Q04DX003 (ip), vehicle: suspension in saline) was 104 % of control and the T/C (dose: 75.0 mg/kg/injection, schedule: Q04DX003 (ip), vehicle: saline) was 97 % of control. For the same compound, the T/C (dose: 75.0 mg/kg/injection, schedule: Q04DX003 (ip), vehicle: suspension in saline) was 120 % of control, the T/C (dose: 150.0 mg/kg/injection, schedule: Q04DX003 (ip), vehicle: saline) was 100 % of control and the T/C (dose: 150.0 mg/kg/injection, schedule: Q04DX003 (ip), vehicle: suspension in saline) was 109 % of control. The T/C (dose: 300.0 mg/kg/injection, schedule: Q04DX003 (ip), vehicle: saline) was 100 % of control and the T/C (dose: 300.0 mg/kg/injection, schedule: Q04DX003 (ip), vehicle: suspension in saline) was 104 % of control.

In the case of `CC1(C)COC2(C)N(c3ccccc3)C(=O)ON12` (centres undefined), the T/C [10] is reported as 100 % of control, the T/C [11] is reported as 100 % of control and the T/C [12] is reported as 97 % of control.

`[Cl][Sn]([Cl])([c]1ccccc1)[c]1ccccc1.c1ccncc1.c1ccncc1` was tested, and the T/C (dose: 3.12 mg/kg/injection, schedule: Q01DX009 (ip), vehicle: saline) was 150 % of control, the T/C (dose: 6.25 mg/kg/injection, schedule: Q01DX009 (ip), vehicle: Klucel (hydroxypropylcellulose) (HPC)) was 153 % of control and 166 % of control and the T/C (dose: 6.25 mg/kg/injection, schedule: Q01DX009 (ip), vehicle: saline) was 156 % of control. For the same compound, the T/C (dose: 12.5 mg/kg/injection, schedule: Q01DX009 (ip), vehicle: Klucel (hydroxypropylcellulose) (HPC)) was 155 % of control and 180 % of control and the T/C (dose: 12.5 mg/kg/injection, schedule: Q01DX009 (ip), vehicle: saline with Tween-80) was 151 % of control.

`CC(=O)OCC12CCC(C)=CC1OC1C(N3CCOCC3)C(O)C2(C)C12CO2` (centres undefined) was tested, and the T/C (dose: 0.62 mg/kg/injection, schedule: Q04DX002 (ip), vehicle: water) was 123 % of control, the T/C (dose: 1.25 mg/kg/injection, schedule: Q04DX002 (ip), vehicle: water) was 123 % of control and the T/C (dose: 2.5 mg/kg/injection, schedule: Q04DX002 (ip), vehicle: water) was 123 % of control.

`COC1(OC)C(c2ccc([N+](=O)[O-])cc2)C(C#N)(C#N)C1(OC)OC` (centres undefined) was tested, and the T/C (dose: 60.0 mg/kg/injection, schedule: Q01DX005 (ip), vehicle: Klucel (hydroxypropylcellulose) (HPC)) was 100 % of control, the T/C (dose: 120.0 mg/kg/injection, schedule: Q01DX005 (ip), vehicle: Klucel (hydroxypropylcellulose) (HPC)) was 97 % of control and the T/C (dose: 240.0 mg/kg/injection, schedule: Q01DX005 (ip), vehicle: Klucel (hydroxypropylcellulose) (HPC)) was 99 % of control.

`C(=C\CN(Cc1ccccc1)Cc1ccccc1)/CN(Cc1ccccc1)Cc1ccccc1` was tested, and the T/C (dose: 50.0 mg/kg/injection, schedule: Q04DX003 (ip), vehicle: Klucel (hydroxypropylcellulose) (HPC)) was 95 % of control, the T/C (dose: 100.0 mg/kg/injection, schedule: Q04DX003 (ip), vehicle: Klucel (hydroxypropylcellulose) (HPC)) was 90 % of control and the T/C (dose: 200.0 mg/kg/injection, schedule: Q04DX003 (ip), vehicle: Klucel (hydroxypropylcellulose) (HPC)) was 90 % of control.

For `S=c1[nH]c2ccc(Cl)cc2s1`, the T/C [1] was 98 % of control, the T/C [2] was 101 % of control and the T/C [3] was 90 % of control. The T/C [5] was 95 % of control.

In the case of `CC(N=[N+]=[N-])n1nnnc1-c1ccccc1` (centres undefined), the T/C (dose: 25.0 mg/kg/injection, schedule: Q01DX001 (ip), vehicle: Klucel (hydroxypropylcellulose) (HPC)) is reported as 101 % of control, the T/C (dose: 50.0 mg/kg/injection, schedule: Q01DX001 (ip), vehicle: Klucel (hydroxypropylcellulose) (HPC)) is reported as 121 % of control and the T/C (dose: 100.0 mg/kg/injection, schedule: Q01DX001 (ip), vehicle: Klucel (hydroxypropylcellulose) (HPC)) is reported as 113 % of control and 120 % of control. The T/C (dose: 200.0 mg/kg/injection, schedule: Q01DX001 (ip), vehicle: Klucel (hydroxypropylcellulose) (HPC)) was 91 % of control.

`CCOP(=O)(Nc1ccc2c(c1)C(=O)c1ccccc1-2)OCC` was tested, and the T/C [10] was 102 % of control, the T/C [11] was 96 % of control and the T/C [12] was 96 % of control.

`O=C1C=C2C=CC3CC2(O1)C1CCCCN31` (centres undefined) was tested, and the T/C (dose: 6.25 mg/kg/injection, schedule: Q04DX002 (ip), vehicle: saline with Tween-80) was 113 % of control, the T/C (dose: 10.0 mg/kg/injection, schedule: Q01DX010 (ip), vehicle: saline) was 90 % of control and the T/C (dose: 12.5 mg/kg/injection, schedule: Q04DX002 (ip), vehicle: saline with Tween-80) was 106 % of control. The T/C (dose: 20.0 mg/kg/injection, schedule: Q01DX010 (ip), vehicle: saline) was 90 % of control, the T/C (dose: 25.0 mg/kg/injection, schedule: Q01DX010 (ip), vehicle: saline) was 90 % of control and 110 % of control and the T/C (dose: 25.0 mg/kg/injection, schedule: Q04DX002 (ip), vehicle: saline with Tween-80) was 106 % of control. For the same compound, the T/C (dose: 50.0 mg/kg/injection, schedule: Q01DX010 (ip), vehicle: saline) was 100 % of control and 110 % of control and the T/C (dose: 100.0 mg/kg/injection, schedule: Q01DX010 (ip), vehicle: saline) was 100 % of control and 120 % of control.

With `COc1cc2c(cc1O)c(O)cc1c3cc(OC)c(OC)cc3c[n+](C)c21` the T/C [9] was 152 % of control, the T/C [10] was 153 % of control and 160 % of control and the T/C [12] was 156 % of control and 159 % of control.
